# Laboratory results: US9290427B2, “Anti-invasive compounds” (Universiteit Gent, priority 2012, dated 2016)
# Test system: MCF-7/6 mammary carcinoma cells
# Experiment: chick heart invasion assay
# Assay type: cell-based, human
# Parameters: unit not given here
# Details: compounds 37-51, Table 11
# Description: “Anti-invasive” or “anti-invasive activity” is the ability to inhibit the invasiveness of tumor cells. Invasion by tumor cells is defined as the progressive occupation and destruction of their environment, and is the result of matrix degradation and directional cell motility. Anti-invasive activity of a compound is the ability to inhibit or block invasion, and can be assessed by counting the number of invading cells, by the depth of their invasion and/or by the amount of environmental destruction. Many assays in vitro can be applied to test for anti-invasive activity (for a complete list see Bracke et al. 2008). The three most popular ones are: • Chick heart invasion assay (Bracke et al., 2001, see details below). The cut-off value is between grade II (non-invasive) and grade III (invasive). […] Collagen gels, prepared on the bottom of plastic wells are covered with a test cell suspension, and incubated with liquid culture medium for 24 h. Invasion is evaluated with an inverted phase-contrast microscope, and is based on the percentage of cells showing extensions in the gel. […] Matrigel is a mixture of basement membrane components, and is applied as a semi-solid layer on top a filter with pores allowing the transgression of cells. The test cell suspension is seeded on top of the gel, and incubated for 1 day in a two-compartment chamber system. Invasion is then evaluated via the percentage of cells that are attached to the lower side of the filter.
# In the chick heart invasion assay cancer cells are confronted with a fragment of normal tissue, so as not to neglect the contribution of the host tissue in the micro-ecosystem that governs tumor behavior. As such, precultured heart tissue fragments (PHFs), dissected from 9-day-old chicken embryos, may be confronted with aggregates of human invasive MCF-7/6 mammary carcinoma cells in the presence of a certain concentration of a test compound. After eight days, the interaction between the cancer cells and the PHF is evaluated histologically and classified along a 5-grades subjective scale (Bracke et al., 2001). Grades III and IV are typical for invasion, while grades 0, I and II correspond to absence of invasion. Compounds that inhibit invasion of confronting cancer cells i.e. from III/IV to 0/I/II, are determined as anti-invasive. Possible alternative assays generally known in the art are the type I collagen invasion assay, wound healing assay and the matrigel invasion assay.
# “Anti-invasive” refers to the ability to inhibit invasion of the tumor or cancer cell into surrounding tissue (within or outside the organ of origin). […] This screening method confronts cancer cells with a fragment of normal tissue, so as not to neglect the contribution of the host tissue in the micro-ecosystem that governs tumor behavior. The interaction between the cancer cells and the normal tissue is evaluated histologically and classified along a 5-grades subjective scale. Grades III and IV are typical for invasion, while grades 0, I and II correspond to absence of invasion. Compounds that inhibit invasion of confronting cancer cells i.e. from III/IV to 0/I/II, are determined as anti-invasive. Possible alternative assays generally known in the art are the type I collagen invasion assay and the Matrigel invasion assay.
# The potency of these molecules had been evaluated by means of the chick heart invasion assay, as described herein before.
row,Compound,Actual in vitro activity class
1,"(2E)-1,3-diphenylpropenone [Compound 37]",1 (about 10)

# Same assay, conditions: training set compounds 37-51; class = log cmin, lowest concentration with invasion grade I or II
row,Compound,Actual class
1,"(2E)-1,3-diphenylpropenone [Compound 37]",1 (about 10)

# Same assay, conditions: validation set, in vitro
row,Compound,anti-invasive activity class act.
1,"O=C(C=Cc1ccco1)c1ccco1 [Compound 70, 1,3-Difuran-2-yl-propenone]",−1 (about 0.1)
2,"O=C(/C=C/c1ccco1)c1ccccc1 [Compound 72, (2E)-3-Furan-2-yl-1-phenylpropenone]",>=2 (about 100)
3,"O=C(/C=C/c1ccco1)c1ccc(F)cc1 [Compound 73, (2E)-3-(2-Furanyl)-1-(4-fluorophenyl)propenone]",2 (about 100)
4,"COc1ccc(C(=O)C=Cc2ccco2)cc1 [Compound 74, 3-Furan-2-yl-1-(4-methoxyphenyl)propenone]",2 (about 100)
5,"COc1cc(C(=O)/C=C/c2ccco2)cc(OC)c1OC [Compound 75, (2E)-3-(2-Furanyl)-1-(3,4,5-trimethoxyphenyl)propenone]",−1 (about 0.1)
6,"COc1cccc(OC)c1C(=O)/C=C/c1ccco1 [Compound 76, (2E)-3-(2-Furanyl)-1-(2,6-dimethoxyphenyl)propenone]",−1 (about 0.1)
7,"O=C(/C=C/c1ccoc1)c1ccc(F)cc1 [Compound 77, (2E)-3-(3-Furanyl)-1-(4-fluorophenyl)propenone]",−1 (about 0.1)
8,"O=C(/C=C/c1cc2ccccc2o1)c1ccc(F)cc1 [Compound 78, (2E)-3-(2-Benzofuranyl)-1-(4-fluorphenyl)propenone]",2 (about 100)
9,COc1ccc(C(=O)/C=C/c2cc3ccccc3o2)cc1 [Compound 79],2 (about 100)
10,C=CCn1cc(C(=O)/C=C/c2ccc(Cl)cc2)c2ccccc21 [Compound 84],≧2 (about 100)
11,"CC(C)=CCn1cc(C(=O)/C=C/c2ccc(Cl)cc2)c2ccccc21 [Compound 85, (2E)-3-(4-Chlorophenyl)-1-[1-(3-methylbut-2-enyl)-1H-indol-3-yl]propenone]",≧2 (about 100)
12,"CC1(C)CCc2c(O)c(C(=O)/C=C/c3cccc([N+](=O)[O-])c3)c3c(c2O1)CCC(C)(C)O3 [Compound 88, (2E)-1-(5-Hydroxy-2,2,8,8-tetramethyl-3,4,9,10-tetrahydro-2H,8H-pyrano[2,3-f]chromen-6-yl)-3-(3-nitro-phenyl)propenone]",≧3 (>100)
13,"COc1cc(O)c(C(=O)/C=C/c2cccc([N+](=O)[O-])c2)cc1C(c1ccccc1)c1ccccc1 [Compound 89, (2E)-1-(5-Benzhydryl-2-hydroxy-4-methoxy-phenyl)-3-(3-nitro-phenyl)-propenone]",≧3 (>100)

# Test system: MCF-7/6 mammary carcinoma cells
# Experiment: not given
# Parameters: unit not given here
# Details: training set compounds 1-34, Indo-Belgian screening program; class = log cmin, lowest concentration with invasion grade I or II; cited from earlier work
row,Compound,Actual class
1,"COc1ccc(/C=C/C(=O)c2cc(C(c3ccccc3)c3ccccc3)c(OC)cc2O)cc1 [Compound 1, (2E)-1-(5-Benzhydryl-2-hydroxy-4-methoxyphenyl)-3-(4-methoxyphenyl)propenone]",3 (>100)
2,"CCOc1ccc(/C=C/C(=O)c2cc(C(c3ccccc3)c3ccccc3)c(OC)cc2O)cc1 [Compound 2, (2E)-1-(5-Benzhydryl-2-hydroxy-4-methoxyphenyl)-3-(4-ethoxyphenyl)propenone]",3 (>100)
3,"COc1cc(O)c(C(=O)/C=C/c2ccc(Oc3ccccc3)cc2)cc1C(c1ccccc1)c1ccccc1 [Compound 3, (2E)-1-(5-Benzhydryl-2-hydroxy-4-methoxyphenyl)-3-(4-phenoxyphenyl)propenone]",3 (>100)
4,"Cc1ccc(/C=C/C(=O)c2c(O)c3c(c4c2OC(C)(C)CC4)OC(C)(C)CC3)cc1 [Compound 4, (2E)-1-(5-Hydroxy-2,2,8,8-tetramethyl-3,4,9,10-tetrahydro-2H,8H-pyrano[2,3-f]chromen-6-yl)-3-p-tolyl-propenone]",3 (>100)
5,"COc1cc(OC)c(C(=O)/C=C/c2ccc3c(c2CCc2ccccc2)CCC(C)(C)O3)cc1CC=C(C)C [Compound 5, (2E)-1-[2,4-Dimethoxy-5-(3-methylbut-2-enyl)phenyl]-3-(2,2-dimethyl-5-phenethylchroman-6-yl)propenone]",1 (about 10)
6,"CC1(C)CCc2c(O)c(C(=O)/C=C/c3ccc(Oc4ccccc4)cc3)c3c(c2O1)CCC(C)(C)O3 [Compound 6, (2E)-1-(5-Hydroxy-2,2,8,8-tetramethyl-3,4,9,10-tetrahydro-2H,8H-pyrano[2,3-f]chromen-6-yl)-3-(4-phenoxypheny)propenone]",3 (>100)
7,"COc1ccc(/C=C/C(=O)c2c(O)c3c(c4c2OC(C)(C)CC4)OC(C)(C)CC3)cc1OCc1ccccc1 [Compound 7, (2E)-3-(3-Benzyloxy-4-methoxy-phenyl)-1-(5-hydroxy-2,2,8,8-tetramethyl-3,4,9,10-tetrahydro-2H,8H-pyrano[2,3-f]chromen-6-yl)propenone]",3 (>100)
8,"CC(C)c1ccc(/C=C/C(=O)c2c(O)c3c(c4c2OC(C)(C)CC4)OC(C)(C)CC3)cc1 [Compound 8, (2E)-1-(5-Hydroxy-2,2,8,8-tetramethyl-3,4,9,10-tetrahydro-2H,8H-pyrano[2,3-f]chromen-6-yl)-3-(4-isopropylphenyl)propenone]",3 (>100)
9,"COc1cccc(/C=C/C(=O)c2cc3c(cc2O)OC(C)(C)C(O)C3)c1OC (centres unmarked) [Compound 9, (2E)-1-(3,7-Dihydroxy-2,2-dimethylchroman-6-yl)-3-(2,3-dimethoxy-phenyl)propenone]",1 (about 10)
10,"COc1cc(OC)c(C(=O)/C=C/c2ccc([N+](=O)[O-])cc2)cc1CC=C(C)C [Compound 10, (2E)-3-(4-nitrophenyl)-1-(2′,4′-dimethoxy-5′-(3-methylbut-2-enyl)phenyl)propenone]",3 (>100)
11,"COc1cc(OC)c(C(=O)/C=C/c2ccccc2)c(O)c1CC=C(C)C [Compound 11, (2E)-3-phenyl-1-(2′-hydroxy-4′,6′-dimethoxy-3′-(3-methylbut-2-enyl)phenyl)propenone]",2 (about 100)
12,"COc1ccc(/C=C/C(=O)c2cc3c(cc2O)OC(C)(C)C(O)C3)c(OC)c1 (centres unmarked) [Compound 12, (2E)-1-(3,7-Dihydroxy-2,2-dimethylchroman-6-yl)-3-(2,4-dimethoxy-phenyl)propenone]",1 (about 10)
13,"COc1cc(/C=C/C(=O)c2ccc(OCc3ccccc3)c(OCc3ccccc3)c2)ccc1OCc1ccccc1 [Compound 13, (2E)-3-(4-Benzyloxy-3-methoxyphenyl)-1-(3,4-bis-benzyloxyphenyl)propenone]",1 (about 10)
14,"COc1cc(OC)c(C(=O)/C=C/c2ccc(C(C)C)cc2)cc1CC=C(C)C [Compound 14, (2E)-3-(4-(1-methylethyl)phenyl)-1-(2′,4′-dimethoxy-5′-(3-methylbut-2-enyl)phenyl)propenone]",1 (about 10)
15,"COc1cc(OC)c(C(=O)/C=C/c2ccccc2)c(OC)c1CC=C(C)C [Compound 15, (2E)-3-phenyl-1-(2′,4′,6′-trimethoxy-3′-(3-methylbut-2-enyl)phenyl)propenone]",3 (>100)
16,"COc1ccc(C(=O)/C=C/c2ccc(C)cc2)cc1OC [Compound 16, (2E)-3-(4-methylphenyl)-1-(3′,4′-dimethoxyphenyl)propenone]",2 (about 100)
17,"COc1cc(OC)c(C(=O)/C=C/c2ccccc2)c(O)c1OC [Compound 17, (2E)-3-phenyl-1-(2′-hydroxy-3′,4′,6′-trimethoxyphenyl)propenone]",2 (about 100)
18,"COc1cc(OC)c(C(=O)/C=C/c2ccccc2)cc1CC=C(C)C [Compound 18, (2E)-3-phenyl-1-(2′,4′-dimethoxy-5′-(3-methylbut-2-enyl)phenyl)propenone]",0 (about 1)
19,"COc1cc(OC)c(C(=O)/C=C/c2ccc(OC)c(OC)c2)cc1CC=C(C)C [Compound 19, (2E)-3-(3,4-dimethoxyphenyl)-1-(2′,4′-dimethoxy-5′-(3-methylbut-2-enyl)phenyl)propenone]",1 (about 10)
20,"COc1ccc(C(=O)/C=C/c2ccc([N+](=O)[O-])cc2)cc1OC [Compound 20, (2E)-3-(4-nitrophenyl)-1-(3′,4′-dimethoxyphenyl)propenone]",3 (>100)
